Assay results as given in patent publication US20210040118A1, “IMMUNOMODULATORS, COMPOSITIONS AND METHODS THEREOF” (BETTA PHARMACEUTICALS CO., LTD, priority 2018, published 2021).

target: T1, PD-1/PD-L1 (Homo sapiens, UniProt Q9NZQ7); test: PD-1/PD-L1 homogenous time-resolved fluorescence (HTRF) binding assay; conditions: recombinant human PD-L1 (19-238) His-tag / human PD-1 (25-167) Fc tag, class symbols
T1 construct: Recombinant human PD-L1 protein (19-238) with a His-tag at the C-terminus; purchased AcroBiosystems PD1-H5229 (PD-L1); PD1-H5257 (PD-1)
T1 sequence (Q9NZQ7 19-238): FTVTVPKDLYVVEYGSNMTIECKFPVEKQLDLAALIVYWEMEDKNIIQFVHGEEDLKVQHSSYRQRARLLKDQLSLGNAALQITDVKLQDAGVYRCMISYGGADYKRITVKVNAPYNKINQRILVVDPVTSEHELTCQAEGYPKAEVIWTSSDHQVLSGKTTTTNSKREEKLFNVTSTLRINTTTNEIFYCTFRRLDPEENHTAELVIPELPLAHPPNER
Outline: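 Inhibitors were preincubated 40 min at 25°C with 10 nM His-tagged human PD-L1 (19-238) and 3 nM Fc-tagged human PD-1 (25-167) in PBS pH 7.4 containing Tween-20, BSA and 1% DMSO. After 60 min with europium anti-human IgG and anti-His-APC, 665/620 nm signal ratio gave IC50 via percent-control fit.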

Structure (SMILES)	IC50
Cc1c(Nc2nccc3cc(CNCC(=O)N(C)C)cnc23)cccc1-c1cccc(Nc2nccc3cc(CNCC(=O)N(C)C)cnc23)c1C [Example 145, 2,2′-(((((2,2′-dimethyl-[1,1′-biphenyl]-3,3′-diyl)bis(azanediyl))bis(1,7-naphthyridine-8,3-diyl))bis(methylene))bis(azanediyl))bis(N,N-dimethylacetamide)]	< 25 nM
COC(=O)NCC1(N2CCc3nc(C(=O)N4CCc5c(-c6cccc7c6CCN7C(=O)c6nc7c(s6)CN(C6(CNC(=O)OC)CC6)CC7)cccc54)sc3C2)CC1 [Example 131, dimethyl (((([4,4′-biindoline]-1,1′-dicarbonyl)bis(6,7-dihydrothiazolo[5,4-c]pyridine-2,5(4H)-diyl))bis(cyclopropane-1,1-diyl))bis(methylene))dicarbamate]	25 to 100 nM
CNCc1cnc(C(=O)N2CCc3c(-c4cccc5c4CCN5C(=O)c4ncc(CNC)s4)cccc32)s1 [Example 113, [4,4′-biindoline]-1,1′-diylbis((5-((methylamino)methyl)thiazol-2-yl)methanone)]	< 25 nM
CS(=O)(=O)NCCN1C2CCC1c1sc(C(=O)N3CCc4c(-c5cccc6c5CCN6C(=O)c5nc6c(s5)C5CCC(C6)N5CCNS(C)(=O)=O)cccc43)nc1C2 [Example 126, N,N′-((([4,4′-biindoline]-1,1′-dicarbonyl)bis(5,6,7,8-tetrahydro-4H-5,8-epiminocyclohepta[d]thiazole-2,9-diyl))bis(ethane-2,1-diyl))dimethanesulfonamide]	< 25 nM
Cc1c(Nc2nccc3cc(CNC(C(=O)O)C(C)C)cnc23)cccc1-c1cccc(Nc2nccc3cc(CNC(C(=O)O)C(C)C)cnc23)c1C (stereo not shown) [Example 142, 2,2′-(((((2,2′-dimethyl-[1,1′-biphenyl]-3,3′-diyl)bis(azanediyl))bis(1,7-naphthyridine-8,3-diyl))bis(methylene))bis(azanediyl))bis(3-methylbutanoic acid)]	< 25 nM
O=C(c1nc2c(s1)CNCC2)N1CCc2c(-c3cccc4c3CCN4c3nccc4cc(CNCCO)cnc34)cccc21 [Example 100, (1′-(3-(((2-hydroxyethyl)amino)methyl)-1,7-naphthyridin-8-yl)-[4,4′-biindolin]-1-yl)(4,5,6,7-tetrahydrothiazolo[5,4-c]pyridin-2-yl)methanone]	< 25 nM
Cc1c(-c2cccc(N(C)C(=O)c3nc4ccc(N)cc4s3)c2C)cccc1N(C)C(=O)c1nc2c(s1)CNCC2 [Example 21, N-(3′-(6-amino-N-methylbenzo[d]thiazole-2-carboxamido)-2,2′-dimethyl-[1,1′-biphenyl]-3-yl)-N-methyl-4,5,6,7-tetrahydrothiazolo[5,4-c]pyridine-2-carboxamide]	100 to 200 nM
COC(=O)NCCNCc1cnc2c(Nc3cccc(-c4cccc(Nc5nccc6cc(CNCCNC(=O)OC)cnc56)c4C)c3C)nccc2c1 [Example 158, dimethyl ((((((2,2′-dimethyl-[1,1′-biphenyl]-3,3′-diyl)bis(azanediyl))bis(1,7-naphthyridine-8,3-diyl))bis(methylene))bis(azanediyl))bis(ethane-2,1-diyl))dicarbamate]	< 25 nM
CC(C)(C(=O)NS(C)(=O)=O)N1CCc2nc(C(=O)N3CCc4c(-c5cccc6c5CCN6C(=O)c5nc6c(s5)CN(C(C)(C)C(=O)NS(C)(=O)=O)CC6)cccc43)sc2C1 [Example 128, 2,2′-(([4,4′-biindoline]-1,1′-dicarbonyl)bis(6,7-dihydrothiazolo[5,4-c]pyridine-2,5(4H)-diyl))bis(2-methyl-N-(methylsulfonyl)propanamide)]	25 to 100 nM
O=C(Nc1cccc(-c2cccc(NC(=O)c3ncc(CNCC(F)(F)F)s3)c2Cl)c1Cl)c1ncc(CNCC(F)(F)F)s1 [Example 68, N,N′-(2,2′-dichloro-[1,1′-biphenyl]-3,3′-diyl)bis(5-(((2,2,2-trifluoroethyl)amino)methyl)thiazole-2-carboxamide)]	< 25 nM
Cc1c(Nc2nccc3cc(CNCC(=O)O)cnc23)cccc1-c1cccc2c1CCN2C(=O)C1=NC2CCN(CC(=O)O)CC2S1 (stereo not shown) [Example 160, ((8-((3-(1-(5-(carboxymethyl)-3a,4,5,6,7,7a-hexahydrothiazolo[5,4-c]pyridine-2-carbonyl)indolin-4-yl)-2-methylphenyl)amino)-1,7-naphthyridin-3-yl)methyl)glycine]	< 25 nM
CNC(C)c1cnc(C(=O)Nc2cccc(-c3cccc(NC(=O)c4cnc(C(C)NC)cn4)c3C)c2C)cn1 (stereo not shown) [Example 180, N,N′-(2,2′-dimethyl-[1,1′-biphenyl]-3,3′-diyl)bis(5-(1-(methylamino)ethyl)pyrazine-2-carboxamide)]	< 25 nM
Cc1c(NC(=O)c2nc3c(s2)CN(C(C)CO)CC3)cccc1-c1cccc(NC(=O)c2nc3c(s2)CN(C(C)CO)CC3)c1C (stereo not shown) [Example 45, N,N′-(2,2′-dimethyl-[1,1′-biphenyl]-3,3′-diyl)bis(5-(1-hydroxypropan-2-yl)-4,5,6,7-tetrahydrothiazolo[5,4-c]pyridine-2-carboxamide)]	< 25 nM
COB(CCCN1CCc2nc(C(=O)N3CCc4c(-c5cccc6c5CCN6C(=O)c5nc6c(s5)CN(CCCB(OC)OC)CC6)cccc43)sc2C1)OC [Example 122, tetramethyl((([4,4′-biindoline]-1,1′-dicarbonyl)bis(6,7-dihydrothiazolo[5,4-c]pyridine-2,5(4H)-diyl))bis(propane-3,1-diyl))diboronate]	< 25 nM
Cc1c(-c2cccc(N(C)Cc3nc4c(s3)CNCC4)c2C)cccc1N(C)Cc1nc2c(s1)CNCC2 [Example 24, N3,N3′,2,2′-tetramethyl-N3,N3′-bis((4,5,6,7-tetrahydrothiazolo[5,4-c]pyridin-2-yl)methyl)-[1,1′-biphenyl]-3,3′-diamine]	100 to 200 nM
Cc1c(NC(=O)c2ncc(CN3CCCC[C@H]3C(=O)O)s2)cccc1-c1cccc2c1CCN2C(=O)c1ncc(CN2CCCC[C@H]2C(=O)O)s1 [Example 72, (S)-1-((2-((3-(1-(5-(((S)-2-carboxypiperidin-1-yl)methyl)thiazole-2-carbonyl)indolin-4-yl)-2-methylphenyl)carbamoyl)thiazol-5-yl)methyl)piperidine-2-carboxylic acid]	< 25 nM
Cc1c(NC(=O)c2ncc(CN3CCCC3)s2)cccc1-c1cccc(NC(=O)c2ncc(CN3CCCC3)s2)c1C [Example 29, N,N′-(2,2′-dimethyl-[1,1′-biphenyl]-3,3′-diyl)bis(5-(pyrrolidin-1-ylmethyl)thiazole-2-carboxamide)]	< 25 nM
Cc1c(NC(=O)c2nc3c(s2)CNCC3)cccc1-c1cccc(NC(=O)c2nc3c(s2)CNCC3)c1Cl [Example 48, N,N′-(2-chloro-2′-methylbiphenyl-3,3′-diyl)bis(4,5,6,7-tetrahydrothiazolo[5,4-c]pyridine-2-carboxamide)]	< 25 nM
CNC(=O)CNCc1cnc2c(Nc3cccc(-c4cccc(Nc5nccc6cc(CNCC(=O)N(C)CCO)cnc56)c4C)c3C)nccc2c1 [Example 147, 2-(((8-((2,2′-dimethyl-3′-((3-(((2-(methylamino)-2-oxoethyl)amino)methyl)-1,7-naphthyridin-8-yl)amino)-[1,1′-biphenyl]-3-yl)amino)-1,7-naphthyridin-3-yl)methyl)amino)-N-(2-hydroxyethyl)-N-methylacetamide]	< 25 nM
Cc1c(NC(=O)c2ccc3c(n2)CCN(CCO)C3)cccc1-c1cccc(NC(=O)c2ccc3c(n2)CCN(CCO)C3)c1C [Example 174, N,N′-(2,2′-dimethyl-[1,1′-biphenyl]-3,3′-diyl)bis(6-(2-hydroxyethyl)-5,6,7,8-tetrahydro-1,6-naphthyridine-2-carboxamide)]	< 25 nM
Cc1c(Nc2nccc3cc(CNCC(=O)N(C)C)cnc23)cccc1-c1cccc(Nc2nccc3cc(CNCC(F)(F)F)cnc23)c1C [Example 146, 2-(((8-((2,2′-dimethyl-3′-((3-(((2,2,2-trifluoroethyl)amino)methyl)-1,7-naphthyridin-8-yl)amino)-[1,1′-biphenyl]-3-yl)amino)-1,7-naphthyridin-3-yl)methyl)amino)-N,N-dimethylacetamide]	< 25 nM
Cc1c(Nc2nccc3cc(CNC(C)C(=O)O)cnc23)cccc1-c1cccc(Nc2nccc3cc(CNC(C)C(=O)O)cnc23)c1C (stereo not shown) [Example 140, 2,2′-(((((2,2′-dimethyl-[1,1′-biphenyl]-3,3′-diyl)bis(azanediyl))bis(1,7-naphthyridine-8,3-diyl))bis(methylene))bis(azanediyl))dipropionic acid]	< 25 nM
CN(CCN1CCc2nc(C(=O)N3CCc4c(-c5cccc6c5CCN6C(=O)c5nc6c(s5)CN(CCN(C)S(C)(=O)=O)CC6)cccc43)sc2C1)S(C)(=O)=O [Example 118, N,N′-((([4,4′-biindoline]-1,1′-dicarbonyl)bis(6,7-dihydrothiazolo[5,4-c]pyridine-2,5(4H)-diyl))bis(ethane-2,1-diyl))bis(N-methylmethanesulfonamide)]	< 25 nM
Cc1c(Nc2nccc3cc(CNCCO)cnc23)cccc1-c1cccc(Nc2nccc3cc(NCCO)cnc23)c1C [Example 6, 2-(((8-((3′-((3-((2-hydroxyethyl)amino)-1,7-naphthyridin-8-yl)amino)-2,2′-dimethyl-[1,1′-biphenyl]-3-yl)amino)-1,7-naphthyridin-3-yl)methyl)amino)ethan-1-ol]	< 25 nM
O=C(Nc1cccc(-c2cccc(Nc3nccc4cc(CNCCO)cnc34)c2Cl)c1Cl)c1ncc(CNCCO)s1 [Example 98, N-(2,2′-dichloro-3′-((3-(((2-hydroxyethyl)amino)methyl)-1,7-naphthyridin-8-yl)amino)-[1,1′-biphenyl]-3-yl)-5-(((2-hydroxyethyl)amino)methyl)thiazole-2-carboxamide]	< 25 nM
